Measured values reported in ChEMBL document CHEMBL5625259, “Direct-to-biology platform: From synthesis to biological evaluation of SHP2 allosteric inhibitors” (Bioorg Med Chem Lett, 2024).

Target: T1, Tyrosine-protein phosphatase non-receptor type 11 (Homo sapiens, UniProt Q06124)
T1 sequence (Q06124 whole entry): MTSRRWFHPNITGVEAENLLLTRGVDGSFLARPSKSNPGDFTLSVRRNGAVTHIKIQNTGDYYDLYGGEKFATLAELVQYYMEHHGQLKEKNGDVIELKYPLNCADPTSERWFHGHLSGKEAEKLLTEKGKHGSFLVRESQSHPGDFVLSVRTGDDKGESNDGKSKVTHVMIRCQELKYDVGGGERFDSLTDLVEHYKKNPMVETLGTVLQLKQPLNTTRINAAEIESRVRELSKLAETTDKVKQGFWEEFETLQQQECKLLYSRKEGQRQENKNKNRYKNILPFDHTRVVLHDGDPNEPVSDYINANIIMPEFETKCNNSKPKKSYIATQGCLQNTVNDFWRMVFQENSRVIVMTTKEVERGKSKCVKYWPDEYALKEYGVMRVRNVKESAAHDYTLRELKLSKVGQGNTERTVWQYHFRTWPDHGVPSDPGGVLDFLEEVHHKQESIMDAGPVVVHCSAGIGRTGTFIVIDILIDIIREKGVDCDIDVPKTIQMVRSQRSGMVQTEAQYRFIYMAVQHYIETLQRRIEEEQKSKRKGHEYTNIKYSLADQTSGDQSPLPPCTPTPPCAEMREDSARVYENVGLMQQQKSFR
Assay: Allosteric inhibition of wild type SHP2 (unknown origin) assessed as dephosphorylation of DIFMUP by fluorescence based envision microplate reader analysis

FC(F)(F)c1ncccc1Sc1cnc2[nH]c(N3CCCC4(CNCCO4)C3)nc2n1 (stereo unspecified) was tested, and the IC50 was over 3.2 µM.
